Assay results published in patent US7695725B2, “Modified free-living microbes, vaccine compositions and methods of use thereof” (Aduro Biotech, priority 2003, dated 2010).

Tested on: Listeria monocytogenes
Experiment: Bacterial titer / log attenuation of Listeria after compound 1 treatment
Assay type: cell-based
Details: e.g. at 1 μM
Description: A procedure was done similarly to Example 1 only using the compound β-alanine, N-(acridin-9-yl), 2-[bis(2-chloroethyl)amino]ethyl ester (Compound 1, ChemSyn, Harrisonville, Mo., see U.S. Pat. No. 6,093,725). The Listeria strains used were DP-L4056 and DP-L4017. Compound 1 (1 mM in acidic BBS (blood bank saline), 135 μl of 1.48 M H3PO4 per 100 mL BBS) was added to 5 mL of bacteria at 1×10^8 CFU/mL to concentrations of 0, 0.5, 1, 2, 5, and 10 μM and the samples incubated for 2 hours at room temperature. After the incubation, the bacterial titer and antigen presentation was assessed as per Example 1.

Compound: O=C(CCNc1c2ccccc2nc2ccccc12)OCCN(CCCl)CCCl [compound 1, β-alanine, N-(acridin-9-yl), 2-[bis(2-chloroethyl)amino]ethyl ester]
- attenuation of proliferation with sufficient antigen presentation: effective
